The target of data set [1] is ACE (Homo sapiens, UniProt P12821). The following applies: cited from earlier work; for IC50: Nakamura et al. 1995, Aryoshi 1993, read-out: IC50 values reported earlier for ACE inhibiting peptides; for ACE inhibiting activities reported: in vitro, prior art.
The subject of data set [2] is spontaneously hypertensive rats. Particulars: tripeptides from fermented milk (Nakamura et al. 1995); cited from earlier work.
For data set [3], the system named is ACE. Description: at-line ACE inhibition assay (HHL substrate, HPLC read-out). It counts as biochemical. Particulars: at-line measurements used in the screening phase. The text has this:
The presence of novel ACE inhibiting peptides in CDBAP was investigated by using 2-dimensional-chromatographic-separation combined with an at-line ACE inhibition assay and mass spectrometry for identification. In the first analysis the peptide mixture was separated on an ODS3 liquid chromatography (LC) column and ACE inhibition profiles were generated from the various fractions obtained. In a second analysis the fractions from the first column showing a high ACE inhibition were further separated on a Biosuite LC column using a different gradient profile. The fractions collected from this second column were split into two parts: one part was used for the at-line ACE inhibition measurement while the other part was subjected to MS and MS-MS analysis to identify the peptides present. […]
The 96 well plate was then analysed on a flash-HPLC-column. […] Hippuric acid (H) and HHL were monitored at 280 nm. The peak heights of H and HHL were measured and the ACE inhibition (ACEI) of each fraction was calculated according to the equation:
[formula] • ACEIα Percentage inhibition of the analyte • Dcw Degree of Cleavage by ACE of HHL to H and HL in water • Dca Degree of Cleavage of HHL to H and HL for the analyte The Degree of Cleavage was calculated by expressing the peak height of H as a fraction of the sum of the peak heights of H and HHL.

The test system of data set [4] is ACE. Description: modified Matsui ACE inhibition assay (Hip-His-Leu, TNBS). It counts as biochemical. The procedure: To determine the ACE inhibition activity of MAP and ITP, the chemically synthesised tripeptides were assayed according to the method of Matsui et al. (Matsui, T. et al. (1992) Biosci. Biotech. Biochem. 56: 517-518) with some minor modifications.
Each one of the four samples contained 75 μl 3 mM hippuryl histidine leucine (Hip-His-Leu, Sigma Chemicals) dissolved in a 250 mM borate solution containing 200 mM NaCl, pH 8.3. ACE was obtained from Sigma Chemicals. The mixtures were incubated at 37° C. and stopped after 30 min by adding 125 μl 0.5 M HCl. Subsequently, 225 μl bicine/NaOH solution (1 M NaOH: 0.25 M bicine (4:6)) was added, followed by 25 μl 0.1 M TNBS (2,4,6-Trinitrobenzenesulfonic acid, Fluka, Switzerland; in 0.1 M Na2HPO4). After incubation for 20 min. at 37° C., 4 ml 4 mM Na2SO3 in 0.2 M NaH2PO4 was added and the light absorbance at 416 nm was measured with UV/Vis spectrophotometer (Shimadzu UV-1601 with a CPS controller, Netherlands).
The amount of ACE inhibition (ACEI) activity was calculated as a percentage of inhibition compared with the conversion rate of ACE in the absence of an inhibitor according to the following formula:
ACEI (%)=((Control 1−Control 2)−(Sample 1−Sample 2))/(Control 1−Control 2))*100
wherein • Control 1=Absorbance without ACE inhibitory component (=max. ACE activity) [AU]. • Control 2=Absorbance without ACE inhibitory component and without ACE (background) [AU]. • Sample 1=Absorbance in the presence of ACE and the ACE inhibitory component [AU]. • Sample 2=Absorbance in the presence of the ACE inhibitory component, but without ACE [AU].

Data set [5] is described as follows: gastrointestinal treatment (GIT) simulating digestion with pepsin and pancreatin. The class given is in vitro ADME, human. The procedure:
After consumption, dietary proteins and peptides are exposed to various digestive enzymatic processes in the gastrointestinal tract. In order to assess the stability of the newly identified bioactive peptides in the human gastrointestinal tract, the CDBAP preparation (prepared as described in Example 7) was subjected to a gastrointestinal treatment (GIT) simulating the digestive conditions typically found in the human body. Samples obtained after various incubation times in the GIT model system were analysed using the on-line HPLC-Bioassay-MS or HRS-MS system to quantify any residual MAP and ITP peptides. The GIT procedure was performed in a standardized mixing device incorporating a 100 ml flask (as supplied by Vankel, US). The temperature of the water bath was set to 37.5° C. and the paddle speed was chosen such that the sample was kept in suspension (100 rpm).
About 3.4 grams of CDBAP (protein level of approx 60%) was dissolved/suspended in 100 ml Milli-Q water. During gastric simulation 5 M HCl was used to decrease the pH. At the end of gastric simulation and during the duodenal phase 5 M NaOH was used to raise the pH.
The CDBAP suspension was preheated to 37.5° C. and 5 ml of the suspension was removed to dissolve 0.31 g of pepsin (Fluka order no. 77161). At t=0 min the 5 ml with the now dissolved pepsin was added back to the suspension. Then the pH of the CDBAP suspension was adjusted slowly by hand using a separate pH meter according to the following scheme:
t=20 min pH decreased to 3.5 t=40 min pH to 3.0 t=50 min pH to 2.3 t=60 min pH to 1.8 t=65 min pH raised to 2.7 t=75 min pH to 3.7 t=80 min pH to 5.3 […]
Then the samples were transferred into a beaker and were placed in a microwave till boiling. […] The total N concentration of the powder as obtained was determined and converted to protein level using the Kjeldahl factor of casein (6.38). […] The levels of MAP and ITP surviving the proteolytic treatment according to the GIT procedure were determined as described in Example 7 and the data obtained are shown in Table 10.

Setting [6] is: as restated in the description, read-out: IC50 value in the Modified Matsui test.

“Also recorded” adds a separate entry of the source.

One may read the IC50 as the midpoint of a concentration-inhibition curve.

ACE (Homo sapiens, UniProt P12821), sequence (P12821 30-1306, species assumed): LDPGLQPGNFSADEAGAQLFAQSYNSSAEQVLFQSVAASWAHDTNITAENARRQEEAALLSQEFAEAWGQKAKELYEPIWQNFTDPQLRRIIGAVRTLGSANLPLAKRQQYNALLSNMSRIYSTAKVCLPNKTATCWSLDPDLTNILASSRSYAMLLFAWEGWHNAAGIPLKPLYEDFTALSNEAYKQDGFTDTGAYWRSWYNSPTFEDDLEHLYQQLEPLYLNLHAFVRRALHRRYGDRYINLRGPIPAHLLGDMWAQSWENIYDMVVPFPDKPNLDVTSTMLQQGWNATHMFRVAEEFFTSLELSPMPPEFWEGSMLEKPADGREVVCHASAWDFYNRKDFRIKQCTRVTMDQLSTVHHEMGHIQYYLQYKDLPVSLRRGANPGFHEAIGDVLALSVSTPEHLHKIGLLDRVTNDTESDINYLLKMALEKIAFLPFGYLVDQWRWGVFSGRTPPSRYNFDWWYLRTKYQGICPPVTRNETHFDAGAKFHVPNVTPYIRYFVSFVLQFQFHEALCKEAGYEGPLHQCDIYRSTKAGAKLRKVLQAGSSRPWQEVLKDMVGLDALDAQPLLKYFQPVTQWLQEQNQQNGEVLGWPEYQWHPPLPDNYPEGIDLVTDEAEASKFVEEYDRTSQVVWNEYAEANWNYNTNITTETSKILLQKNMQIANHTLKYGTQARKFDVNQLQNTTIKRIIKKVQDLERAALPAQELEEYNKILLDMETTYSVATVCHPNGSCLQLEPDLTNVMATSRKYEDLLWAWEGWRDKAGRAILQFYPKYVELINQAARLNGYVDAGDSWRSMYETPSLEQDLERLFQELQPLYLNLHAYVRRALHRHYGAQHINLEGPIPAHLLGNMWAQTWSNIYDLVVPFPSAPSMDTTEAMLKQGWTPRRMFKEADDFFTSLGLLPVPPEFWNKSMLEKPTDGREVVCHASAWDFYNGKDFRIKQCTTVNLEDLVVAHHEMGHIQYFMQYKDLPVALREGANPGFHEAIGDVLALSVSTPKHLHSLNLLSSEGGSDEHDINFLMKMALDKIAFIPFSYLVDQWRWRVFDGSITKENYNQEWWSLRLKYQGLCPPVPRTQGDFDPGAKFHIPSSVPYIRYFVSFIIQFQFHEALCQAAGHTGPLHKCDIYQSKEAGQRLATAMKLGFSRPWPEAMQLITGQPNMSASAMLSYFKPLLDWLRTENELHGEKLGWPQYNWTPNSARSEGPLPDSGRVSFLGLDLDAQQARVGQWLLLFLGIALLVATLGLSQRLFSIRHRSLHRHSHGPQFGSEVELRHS

Leu-Pro-Pro [LPP]: at ACE [1], the IC50 is 9.6 µM and the “ACE inhibiting activities reported” value is reported as “Strong ACE inhibiting activities”.
With Val-Pro-Pro [VPP], the “ACE inhibiting activities reported” value on ACE [1] was “Strong ACE inhibiting activities”. The antihypertensive effects entry in data set [2] was “confirmed”.
In the case of Ile-Pro-Pro (IPP), the concentration for half-maximal inhibition (IC50) was 7.1 µM in the data set with ACE [3], 2 µM in the data set on ACE [4] (setting [6]) and 5 µM with ACE [1]. Moreover, in the data set with ACE [1], the “ACE inhibiting activities reported” value is given as “Strong ACE inhibiting activities”. Also, in data set [2], the antihypertensive effects result is reported as “confirmed”.
For the substance Ile-Thr-Pro (ITP), the IC50 with ACE [3] worked out at 50 µM; in the data set on ACE [4] (setting [6]), 10 µM; in the data set with ACE [4] (chemically synthesized tripeptides, read-out: IC50 value, Modified Matsui assay), 10 µM. For the same substance, in data set [5] (CDBAP (Example 7), before passage), the “Concentration of tripeptide in CDBAP before GIT procedure” value is given as 903.7 μg g^−1 powder. Besides, the “Concentration of tripeptide in CDBAP after GIT procedure” value in data set [5] (CDBAP after GIT, pepsin then pancreatin, 125 min, 37.5° C.) is listed as 889.1 μg g^−1 powder. Moreover, the “resistance against GIT digestion” value in data set [5] (simulated gastro-intestinal digestion) was “high resistance; also recorded: resist gastrointestinal proteolytic degradation; also recorded: survive”.

The record behind these values is patent publication US20090042809A1, “Blood Pressure Lowering Protein Hydrolysates” (priority 2005, published 2009).
